{"source": "patent US20240009191A1", "about": "“METHOD AND COMPOSITION FOR THE TREATMENT OF DISEASE” (DIMERIX BIOSCIENCE PTY LTD, priority 2019, published 2024)", "type_in_all_cases": "cell-based", "key": {"AT1R-CXCR2 heteromer [1]": {"target": "T1, AT1R-CXCR2 heteromer (Homo sapiens, UniProt P25025+P30556)", "T1 sequence (P25025 1-360)": "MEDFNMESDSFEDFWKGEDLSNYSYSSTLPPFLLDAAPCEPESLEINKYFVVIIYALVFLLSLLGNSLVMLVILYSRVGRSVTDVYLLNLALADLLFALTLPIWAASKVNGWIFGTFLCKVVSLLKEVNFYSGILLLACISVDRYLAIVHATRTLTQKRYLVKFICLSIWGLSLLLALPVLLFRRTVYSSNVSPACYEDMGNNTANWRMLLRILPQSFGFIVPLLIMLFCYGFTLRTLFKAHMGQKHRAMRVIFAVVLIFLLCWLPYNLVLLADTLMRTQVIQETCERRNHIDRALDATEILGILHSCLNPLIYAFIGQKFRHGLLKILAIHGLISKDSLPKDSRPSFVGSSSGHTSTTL", "T1 sequence (P30556 1-359)": "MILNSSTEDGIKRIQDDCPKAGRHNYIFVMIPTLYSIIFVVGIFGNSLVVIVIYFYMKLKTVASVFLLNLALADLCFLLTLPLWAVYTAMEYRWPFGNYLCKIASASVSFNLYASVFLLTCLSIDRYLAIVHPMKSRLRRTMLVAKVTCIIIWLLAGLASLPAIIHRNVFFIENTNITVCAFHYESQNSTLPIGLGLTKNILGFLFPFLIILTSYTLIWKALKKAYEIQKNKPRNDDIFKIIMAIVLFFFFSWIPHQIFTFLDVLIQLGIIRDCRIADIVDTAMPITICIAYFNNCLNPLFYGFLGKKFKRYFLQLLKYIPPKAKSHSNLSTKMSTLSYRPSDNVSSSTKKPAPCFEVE", "experiment": "BRET Gi coupling (Receptor-HIT), CXCR2/Rluc8, Venus/mGsi and HA-AT1R, HEK293FT cells", "procedure": "HEK293FT cells were seeded in 6-well plates at a density of approximately 700,000 cells/well and maintained at 37° C., 5% CO2 in Complete Media (DMEM containing 0.3 mg/ml glutamine, 100 IU/ml penicillin and 100 μg/ml streptomycin (Gibco/Thermo Fisher)) supplemented with 10% fetal calf serum (FCS; Bovogen). […] BRET measurements were taken at 37° C. using the LUMlstarTM or CLARIOstarTM (BMG Labtech). Filtered light emissions were measured for 1 s in each of the 'donor wavelength window' (460-490 nm for LUMlstarTM or 410-490 nm for CLARIOstarTM) and 'acceptor wavelength window' (520-550 nm for LUMlstarTM or 520-620 nm for CLARIOstarTM). The BRET signal observed between interacting proteins is normalized by subtracting the background BRET ratio. This can be done in one of two ways (see Pfleger et al. (2006) Cell Signal 18:1664-1670; Pfleger et al. (2006) Nat Protoc 1:336-344): 1) the ratio of the 520-550 nm or 520-620 nm emission over the 460-490 nm or 410-490 nm emission for a cell sample containing only the donor construct is subtracted from the same ratio for a sample containing the interacting acceptor and donor fusion proteins; 2) the ratio of the 520-550 nm or 520-620 nm emission over the 460-490 nm or 410-490 nm emission for a cell sample treated with vehicle is subtracted from the same ratio for a second aliquot of the same cell sample treated with ligand. […]"}, "AT1R-CXCR2 heteromer [2]": {"target": "T1, AT1R-CXCR2 heteromer", "experiment": "BRET trafficking of CXCR2/Rluc8 (Venus/Kras, Rab5, Rab8) with HA-AT1R, pre-treatment with vehicle or antagonists/inverse agonists", "procedure": "(§1) HEK293FT cells were seeded in 6-well plates at a density of approximately 700,000 cells/well and maintained at 37° C., 5% CO2 in Complete Media (DMEM containing 0.3 mg/ml glutamine, 100 IU/ml penicillin and 100 μg/ml streptomycin (Gibco/Thermo Fisher)) supplemented with 10% fetal calf serum (FCS; Bovogen). Transient transfections were carried out 24 h after seeding using FuGene6™ (Promega) according to manufacturer instructions. 24 h post-transfection, cells were washed with PBS, detached using 0.05% trypsin/0.53 mM EDTA, resuspended in HEPES-buffered phenol red free Complete Media containing 5% FCS and added to a poly-L-lysine-coated white 96-well microplate (Greiner Bio-One). 48 h post-transfection, bioluminescence resonance energy transfer (BRET) assays were carried out following pre-incubation of cells with EnduRen™ (Promega) at a final concentration of 30 μM, at 37° C., 5% CO2 for 2 h. BRET measurements were taken at 37° C. using the LUMlstar™ or CLARIOstar™ (BMG Labtech).\n(§2) For antagonist/inverse agonist assays, cells were pre-incubated with EnduRen for 1.5 hours, followed by the addition of vehicle or antagonists/inverse agonists (10 μM) for another 30 minutes.\n(§3) The BRET signal observed between interacting proteins is normalized by subtracting the background BRET ratio. […] In the following examples, the second calculation will be used and the signal is described as ligand-induced BRET′. Furthermore, for data shown in FIGS. 4 to 20, all data points in a given set are corrected relative to the final data point prior to agonist treatment, which is fixed to zero. In keys on FIGS. 7 to 20, “>” means “followed by after 50 minutes”, with agonists added at time zero on the x-axes.\n(§4) Prior to agonist treatment (added at 0 minutes), a baseline BRET signal was recorded for each of the combinations for 20 minutes. Data were calculated as ligand-induced BRET relative to the ‘vehicle followed by vehicle’ (veh>veh) data set."}, "AT1R-CXCR2 heteromer [3]": {"target": "T2, AT1R-CXCR2 heteromer (Homo sapiens, UniProt P25025+P30556)", "T2 sequence (P30556 1-359)": "T1 sequence (P30556 1-359)", "T2 sequence (P25025 1-360)": "T1 sequence (P25025 1-360)", "experiment": "BRET trafficking of AT1R/Rluc8 (Venus/Kras, Rab5) with unlabelled CXCR2, pre-treatment with vehicle or antagonists/inverse agonists", "conditions": "pre-treatment with vehicle, 100 nM AngII only or with 10 nM CXCL8", "procedure": "as §1, §2, §3, §4"}}, "data": [{"substance": "Angiotensin II [AngII]", "values": [{"measurement": "ligand-induced BRET signal, CXCR2/Rluc8 and Venus/mGsi", "setting": "AT1R-CXCR2 heteromer [1]", "result": "approximately 0.05"}, {"measurement": "proximity of CXCR2/Rluc8 to Venus/Kras (BRET)", "setting": "AT1R-CXCR2 heteromer [2]", "result": "increased proximity"}, {"measurement": "proximity of CXCR2/Rluc8 to Venus/Rab5 (BRET)", "setting": "AT1R-CXCR2 heteromer [2]", "result": "very small increase"}, {"measurement": "proximity of CXCR2/Rluc8 to Venus/Rab8 (BRET)", "setting": "AT1R-CXCR2 heteromer [2]", "result": "clear increase"}, {"measurement": "proximity of AT1R/Rluc8 to Venus/Kras (BRET)", "setting": "AT1R-CXCR2 heteromer [3]; FIG. 19A, 19B", "result": "marked reduction"}, {"measurement": "proximity of AT1R/Rluc8 to Venus/Rab5 (BRET)", "setting": "AT1R-CXCR2 heteromer [3]; FIG. 20A, 20B", "result": "marked increase"}]}]}
